Each structure is given as a SMILES string. Entries after “also recorded” stand apart in the source; their conditions may differ.

These results are taken from paper PMC4818757, “Small molecule inhibitors of the Dishevelled‐CXXC5 interaction are new drug candidates for bone anabolic osteoporosis therapy” (EMBO Molecular Medicine, 2016).

One series addresses T1, Dvl PDZ domain (Homo sapiens, UniProt O14640).
T1 construct: plasmid DNA encoding Dvl-1247- 341 (the Dvl PDZ domain); His-tag (TEV-cleavable) (cleaved yes); made in house; host or cells: E. coli BL21 (DE3)
T1 sequence (O14640 247-341 limits assumed): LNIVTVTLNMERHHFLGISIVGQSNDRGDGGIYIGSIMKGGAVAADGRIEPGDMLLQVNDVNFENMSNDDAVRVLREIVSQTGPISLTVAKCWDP
Description: Fluorescence quenching of Dvl PDZ domain. The settings on record: read-out: binding affinity between Dvl PDZ domain and compound. The protocol:
Figure 4 Binding of KY‐02327, a KY‐02061 analog, on Dvl PDZ domain • A The chemical structure of KY‐02327. • B A competition curve for the Dvl–CXXC5 interaction by KY‐02327. • C Fluorescence quenching plot of Dvl PDZ domain upon addition of different amounts of KY‐02327. From top to bottom, final molar ratio between Dvl PDZ and KY‐02327 was 1:0, 1:1, 1:2, 1:3, 1:4, 1:5, 1:6, 1:7, 1:8, 1:9, 1:10, 1:15, 1:20, and 1:25, respectively. • D–F ^1H‐^15N‐HSQC analyses were performed to analyze the interaction of ^15N‐labeled Dvl PDZ domain with KY‐02327. […] Plot of chemical shift changes (Δδ) as a function of residue number in molecular ratio 1:20 (E, a red‐colored line indicates the line for Δδ = 0.05). The residues with Δδ greater than 0.05 are visualized as a stick model on the ribbon representation of the Dvl PDZ domain structure (F). • G Molecular docking of KY‐02061 or KY‐02327 to Dvl PDZ domain was analyzed by in silico experiments. The superimposed structure of KY‐02061 (yellow) and KY‐02327 (cyan) on the surface of Dvl PDZ domain (gray) was visualized.

Series [1] relates to normal or cancer cells derived from various tissues. Put plainly: MTT assay on various normal or cancer cells. The class given is cell-based. The method, then: (amino acids 1-34) was subcutaneously injected into the Sham-operated
(Sham) or ovariectomized (OVX) mice on 5 sequential days per week for 4 weeks [n =4]. During treatment, the weights of each mouse were measured and recorded every week (A). After 4 weeks treatment, mice were scarified and their organs were subjected to histological analyses.
Hematoxylin and Eosin staining of liver (B), lung (C), and spleen (D).
E Various cells were treated with DMSO or 0.1, 1, or 10 µ M KY-02327.
After 48 hours, cells were subjected to an MTT assay (OD590 reading) to measure cell viability. NSC: neural stem cell, OB: osteoblast, MSC: mesenchymal stem cell. The data are the mean ± s.d. (error bars). [n =3]

For another series, the target named is T2, CYP1A2 (Homo sapiens, UniProt P05177).
T2 sequence (P05177 1-516): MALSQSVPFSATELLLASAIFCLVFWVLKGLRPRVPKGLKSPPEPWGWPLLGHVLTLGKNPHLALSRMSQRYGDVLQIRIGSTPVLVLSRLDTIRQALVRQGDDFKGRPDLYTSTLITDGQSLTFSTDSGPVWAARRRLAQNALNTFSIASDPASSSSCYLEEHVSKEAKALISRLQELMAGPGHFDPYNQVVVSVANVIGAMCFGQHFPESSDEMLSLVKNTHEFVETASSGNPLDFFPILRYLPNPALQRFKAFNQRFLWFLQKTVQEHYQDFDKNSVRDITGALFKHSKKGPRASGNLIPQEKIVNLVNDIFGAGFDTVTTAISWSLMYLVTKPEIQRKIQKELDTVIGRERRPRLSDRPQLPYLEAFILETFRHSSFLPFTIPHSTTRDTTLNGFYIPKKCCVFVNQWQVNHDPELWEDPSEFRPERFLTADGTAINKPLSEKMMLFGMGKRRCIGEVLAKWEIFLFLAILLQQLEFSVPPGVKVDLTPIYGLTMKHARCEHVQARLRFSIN
Put plainly: in vitro. The settings on record: probe fluorogenic P450 substrates.

The subject of another series is primary osteoblast cells. Put plainly: ALP staining of primary calvaria (osteoblast) cells. The series is classed as cell-based, mouse. The settings on record: 4 days. The method, then:
Figure 3 Effect of KY‐02061 on Wnt/β‐catenin pathway, osteoblast differentiation, and ex vivo‐cultured calvaria growth • A MC3T3E1 cells were transfected with pTOPFLASH together with pCMV‐β‐gal. After 24 h, the cells were treated with DMSO, KY‐02061 in DMSO, or 5 μM PolyR‐DBM for 2 days. The luciferase activities of whole‐cell lysates were measured and normalized with β‐galactosidase activities. (n = 3) • B Primary calvaria cells were isolated from the calvariae of 4‐day‐old mice (Manton et al, 2007) and treated with DMSO or KY‐02061 in DMSO for 4 days. ALP activity levels were visualized by ALP staining. • C Primary calvaria cells were treated with DMSO or 5 μM KY‐02061 in DMSO for 14 days. […] The calvaria thicknesses were measured from the stained sections using Image Pro software (E). […] (error bars), and significance was assessed using unpaired Student's t‐test.
MC3T3E1 cells and primary calvaria cells were maintained in supplemented α‐MEM. […] For quantitative real‐time PCR (qRT–PCR), total mRNAs were extracted using TRIzol (Invitrogen), complementary DNAs were prepared using Maxime PCR PreMix (iNtRON Biotechnology, Sungnam, Korea), and the qRT–PCRs were performed using SYBR Premix Ex Taq (TaKaRa, Shiga, Japan) in the StepOnePlus Real‐Time PCR machine (Thermo Fisher Scientific, Waltham, MA). […]

As to `CCOC(=O)c1cc2cc(O)ccc2n1CC(=O)NCCN1CCCCC1` [KY‐02327], the Kd on Dvl PDZ domain turned out to be 8.31 ± 0.8 µM. Moreover, the “toxic effect on cell viability (MTT)” value in series [1] (0.1, 1, or 10 M, 48 hours) is reported as “no significant toxic effect”. Further, the “proliferation of MC3T3E1 cells (MTT)” value in series [1] (MC3T3E1) is recorded as “did not significantly affect”. Also, in series [1] (OB), the “proliferation of murine primary osteoblasts (OB)” value is recorded as “unaffected”. The inhibition at 10 µM against CYP1A2 was determined as 0%.

For `CCOC(=O)Cn1c(C(=O)OCC)cc2cc(OS(=O)(=O)c3ccc(C)cc3)ccc21` [KY‐02061], the “Alkaline phosphatase (ALP) activity” value in the series with primary osteoblast cells (2 μM) was “increased; also recorded: strongest increase”. Further, the “ALP activity, dose dependence” value in the series with primary osteoblast cells is “increased in a dose‐dependent manner”.

Broadly, the inhibition is how much of the control response was suppressed. Lower therefore signals a response near the control.
